How the values were obtained:
[1] = test system: alkaline phosphatase activity of mouse bone cells (OPC); experiment: Alkaline phosphatase activity of OPC with bioactive reagents or polymer foams; assay type: cell-based; conditions: 4 weeks, OD at 405 nm, medium with or without polymer, FIG. 5
Experimental: Bioactive polymers containing covalently bound dexamethasone and β-glycerophosphate were also synthesized and studied for potential use as bone scaffolds. In several studies, mouse bone cells (OPC) (9.6×10^4/well) were cultured in a 6-well tissue culture plate without polymer foam (blank column) with Dulbecoo's modified Eagle's medium only (DMEM); with 5 mM β-glycerophosphate (β-GP); with 100 nM dexamethasone (Dex); 50 μM ascorbic acid (Vc); with 50 μM ascorbic acid and 5 mM β-glycerophosphate (Vc+β-GP); with 50 μM ascorbic acid and 100 nM dexamethasone (Vc+Dex); with 50 μM ascorbic acid, 100 nM dexamethasone and 5 mM β-glycerophosphate (Vc+Dex+β-GP) for 4 weeks.
The same cells were cultured in a 6-well plate with the LDI-PEG400-glucose polymer (red column) using DMEM only. The polymer foams were synthesized with lysine ethyl ester diisocyanate (LDI), glucose and PEG only (DMEM); with LDI, glucose, PEG and β-glycerophosphate (β-GP); with LDI, glucose, PEG and dexamethasone (Dex); with LDI, glucose, PEG and ascorbic acid (Vc); with LDI, glucose, PEG, ascorbic acid and β-glycerophosphate (Vc+β-GP); with LDI, glucose, PEG, ascorbic acid and dexamethasone (Vc+Dex); and with LDI, glucose, PEG, ascorbic acid, 3-glycerophosphate and dexamethasone (Vc+Dex+β-GP). […] The alkaline phosphatase activity was determined by the OD at 405 nm in the medium with or without polymer. […]

[2] = test system: type I collagen of GFP-MBMC; experiment: Western blot analysis for type I collagen; assay type: cell-based, mouse; conditions: two weeks of culture
Experimental: After two weeks of culture, the cells were harvested with Trypsin, subjected to a centrifuge and washed once with PBS. Thereafter, the lysis buffer/CLAP solution was added to the cells (Lysis buffer: 0.187 g HEPE, 0.4235 g NaCl, 0.001 g MgCl2 and 0.19 g EGTA dissolved in 50 ml PBS. CLAP solution: 4 μl each of chymostatin, leupeptin, antipain and pepstatin A in 100 μl PBS. Lysis buffer/CLAP solution: 100 μl CLAP solution added to 6.6 ml Lysis buffer). To assure complete rupture of the cells, the tubes were stored at −20° C. for 12 hrs. Total protein concentration was quantified using the BCA protein assay kit (Fisher Scientific, USA), which measured the light absorbance at 562 nm verses a standard curve on a microplate reader.
The protein obtained as described above was re-suspended in Laemmli sample buffer, followed by protein separation on an SDS-10% polyacrylamide gel. Western blotting was performed as described previously. […]
To ensure that equal amount of total protein was loaded to the membrane, GAPDH (glycerealdehyde-3-phosphate dehydrogenase) was detected using rat-anti-mouse GAPDH antibody (ICN Biochemicals, USA) followed by peroxidase-conjugated rabbit-anti-rat IgG antibody (E.Y. Laboratories, Inc. USA). […] Molecular weights of the proteins were determined using prestained molecular weight standards (14,300-200,000 molecular weight range; GIBCO BRL). […]

[3] = test system: collagen type I in GFP-MBMC; experiment: Collagen type I production (Sirius Red F3B); assay type: cell-based, mouse; conditions: after 7 days culture, P<0.005
Experimental: Soluble calf skin collagen type I was used for the standard curves run with each assay (see FIG. 14). […] Three individual experiments were performed for type I collagen. The results were presented as the mean±standard deviation (n=3).

SMILES | alkaline phosphatase activity of OPC [1] | type I collagen secreted (Western blotting) [2] | concentration of collagen type I relative to LDI-glycerol-PEG scaffold or tissue culture plate [3]
O=C1O[C@H]([C@@H](O)CO)C(O)=C1O [ascorbic acid] | significantly increased | higher concentrations | two times higher
O=P(O)(O)OC(CO)CO [β-glycerophosphate] | more moderately |  | 

Reference: US20150093821A1, “BIODEGRADABLE POLYURETHANES AND USE THEREOF” (CARNEGIE MELLON UNIVERSITY, priority 2003, published 2015)
